# From patent publication US20090176817A1, “Method of Treatment of Diarrhea-Predominant Irritable Bowel Syndrome in a Subject” (priority 2005, published 2009)
# Tested on: diarrhea-predominant IBS subjects
# Test: Study S241.3.009: weekly diary questions on adequate relief
# Assay type: in vivo, human
# Settings: 2 mg TID, ITT; for Number of months a subject was a responder during Months 1 to 3: IBS symptoms, One month / Number of months a subject was a responder during Months 1 to 3: IBS symptoms, Three months / Number of months a subject was a responder during Months 1 to 3: IBS symptoms, Two months / Number of months a subject was a responder during Months 1 to 3: IBS symptoms, Zero months / Number of months a subject was a responder during Months 1 to 3: Abdominal pain/discomfort, One month / Number of months a subject was a responder during Months 1 to 3: Abdominal pain/discomfort, Three months / Number of months a subject was a responder during Months 1 to 3: Abdominal pain/discomfort, Two months / Number of months a subject was a responder during Months 1 to 3: Abdominal pain/discomfort, Zero months / Number of months a subject was a responder during Months 1 to 3: Abnormal bowel habits, One month / Number of months a subject was a responder during Months 1 to 3: Abnormal bowel habits, Three months / Number of months a subject was a responder during Months 1 to 3: Abnormal bowel habits, Two months / Number of months a subject was a responder during Months 1 to 3: Abnormal bowel habits, Zero months / Responder rate, adequate relief of IBS symptoms / Responder rate, adequate relief of abdominal pain/discomfort / Responder rate, adequate relief of abnormal bowel habits: monthly LOCF imputation; for Number of subjects who were responders during the 26-week treatment period: Adequate relief of IBS symptoms / Number of subjects who were responders during the 26-week treatment period: Adequate relief of abdominal pain/discomfort / Number of subjects who were responders during the 26-week treatment period: Adequate relief of abnormal bowel habits: observed case
# Procedure: Study S241.3.009 was a Phase III, a double-blind, placebo-controlled, randomized, multinational study to investigate the safety and efficacy of 2 mg TID of cilansetron over 26 weeks in diarrhea-predominant IBS subjects. The study was conducted in 146 multinational study centers. A total of 1307 subjects consented to participate, and 806 subjects were randomized. A total of 792 subjects were analyzed for efficacy and 799 subjects were analyzed for safety. Diagnosis and main criteria for inclusion were IBS subjects satisfying the Rome I criteria (1992); the diarrhea-predominant sub-population of the Rome II criteria; and a minimum abdominal pain/discomfort, stool frequency and consistency determined during the run-in period. Subjects were treated with cilansetron 2 mg tablets given orally TID or matching placebo tablets given orally TID for 26 weeks.
# The primary efficacy parameter was the overall response rate for IBS symptoms, based on the weekly question concerning adequate relief of IBS symptoms (abdominal pain/discomfort, abnormal bowel habits) over the 26 weeks period. A responder was a subject who responded “yes” at least 50% of the time during his/her treatment period, with minimum treatment duration of four weeks. The two main secondary efficacy parameters were overall responder rate based on the weekly question on adequate relief of abdominal pain/discomfort and abnormal bowel habits during the 26-week treatment period. The onset of action of cilansetron was also examined using daily diary data (stool frequency, and ratings of urgency and severity) during the initial 8 weeks of trial participation. An additional key secondary efficacy parameter was the number of months (one month equals four weeks) up to six months (24-weeks) that a subject was a responder for IBS symptoms, where a responder was defined as a subject who answered the weekly question with “yes” at least twice for that month. The responder rate for the weekly diary questions on adequate relief at each month and all months, the adequate relief rate, the number of subjects with adequate relief by week, daily diary questions, IBS-QOL scores, and the interruption of activities were also assessed. Safety was evaluated by physical examination, ECG, vital signs, laboratory evaluations, concomitant medications, and AEs.
# Studies S24 1.3.OO6, S24 1.3.0 1 1, and S24 1.3.009 used the following efficacy measurements: • The subjects answered the following three questions with “yes” or “no” using a phone diary at the end of each week: • a) During the last week, did you experience adequate relief of your IBS symptoms, such as abdominal pain, abdominal discomfort, abnormal bowel habits? • b) During the last week, did you experience adequate relief of your abdominal pain and/or discomfort? • c) During the last week, did you experience adequate relief of your abnormal bowel habits? • The subjects rated the following symptoms using the phone diary at the end of each day: • abdominal pain/discomfort (five-point scale); • stool consistency (seven-point Bristol Stool Scale); • stool frequency (number of bowel movements each day); • urgency (five-point scale); • straining (yes or no); • feeling of incomplete defecation (yes or no); • bloating or feeling of abdominal distension (five-point scale). • In Studies S241 A006 and S241.3.009, subjects completed the IBS-QOL Survey at Baseline (Day 1) and at the end of treatment. In Study S24 1.3.0 1 1, subjects completed the IBS-QOL Survey at Baseline (Day 1), at the end of the three-month treatment period, and at the end of rerandomized treatment.
# In all three pivotal efficacy studies, the primary and main secondary efficacy parameters were based on the weekly diary questions on adequate relief and included the following: • 1. Number of months (one month equals four weeks) that a subject was a responder for the weekly diary questions on adequate relief. […]
# [1] = Duration of IBS: >24 months to ≦48 months
# [2] = Duration of IBS: >48 months to ≦120 months
structure (smiles),measurement,setting,value
"Cc1nccn1C[C@H]1CCc2c(c3cccc4c3n2CCC4)C1=O [Cilansetron, (R)-(−)-4,5,6,8,9,10-hexahydro-10-[(2-methyl-1H-imidazol-1-yl)methyl]-11H-pyrido-[3,2,1-jk]-carbazol-11-one]","Number of months a subject was a responder during Months 1 to 3: IBS symptoms, One month",[1],9 (9) n (%)
same,"Number of months a subject was a responder during Months 1 to 3: IBS symptoms, Three months",[1],35 (36) n (%)
same,"Number of months a subject was a responder during Months 1 to 3: IBS symptoms, Two months",[1],21 (22) n (%)
same,"Number of months a subject was a responder during Months 1 to 3: IBS symptoms, Zero months",[1],31 (32) n (%)
same,Number of subjects who were responders during the 26-week treatment period: Adequate relief of IBS symptoms,[1],56 (58) n (%)
same,Number of subjects who were responders during the 26-week treatment period: Adequate relief of abdominal pain/discomfort,[1],60 (63) n (%)
same,Number of subjects who were responders during the 26-week treatment period: Adequate relief of abnormal bowel habits,[1],63 (66) n (%)
same,"Number of months a subject was a responder during Months 1 to 3: Abdominal pain/discomfort, One month",[2],21 (16) n (%)
same,"Number of months a subject was a responder during Months 1 to 3: Abdominal pain/discomfort, Three months",[2],45 (34) n (%)
same,"Number of months a subject was a responder during Months 1 to 3: Abdominal pain/discomfort, Two months",[2],23 (18) n (%)
same,"Number of months a subject was a responder during Months 1 to 3: Abdominal pain/discomfort, Zero months",[2],42 (32) n (%)
same,"Number of months a subject was a responder during Months 1 to 3: Abnormal bowel habits, One month",[2],19 (15) n (%)
same,"Number of months a subject was a responder during Months 1 to 3: Abnormal bowel habits, Three months",[2],51 (39) n (%)
same,"Number of months a subject was a responder during Months 1 to 3: Abnormal bowel habits, Two months",[2],26 (20) n (%)
same,"Number of months a subject was a responder during Months 1 to 3: Abnormal bowel habits, Zero months",[2],35 (27) n (%)
same,"Number of months a subject was a responder during Months 1 to 3: IBS symptoms, One month",[2],16 (12) n (%)
same,"Number of months a subject was a responder during Months 1 to 3: IBS symptoms, Three months",[2],46 (35) n (%)
same,"Number of months a subject was a responder during Months 1 to 3: IBS symptoms, Two months",[2],28 (21) n (%)
same,"Number of months a subject was a responder during Months 1 to 3: IBS symptoms, Zero months",[2],41 (31) n (%)
same,Number of subjects who were responders during the 26-week treatment period: Adequate relief of IBS symptoms,[2],72 (55) n (%)
same,Number of subjects who were responders during the 26-week treatment period: Adequate relief of abdominal pain/discomfort,[2],68 (52) n (%)
same,Number of subjects who were responders during the 26-week treatment period: Adequate relief of abnormal bowel habits,[2],79 (60) n (%)
same,"Number of months a subject was a responder during Months 1 to 3: Abdominal pain/discomfort, One month",Duration of IBS: >120 months,15 (21) n (%)
same,"Number of months a subject was a responder during Months 1 to 3: Abdominal pain/discomfort, Three months",Duration of IBS: >120 months,22 (31) n (%)
same,"Number of months a subject was a responder during Months 1 to 3: Abdominal pain/discomfort, Two months",Duration of IBS: >120 months,15 (21) n (%)
same,"Number of months a subject was a responder during Months 1 to 3: Abdominal pain/discomfort, Zero months",Duration of IBS: >120 months,20 (28) n (%)
same,"Number of months a subject was a responder during Months 1 to 3: Abnormal bowel habits, One month",Duration of IBS: >120 months,10 (14) n (%)
same,"Number of months a subject was a responder during Months 1 to 3: Abnormal bowel habits, Three months",Duration of IBS: >120 months,27 (38) n (%)
same,"Number of months a subject was a responder during Months 1 to 3: Abnormal bowel habits, Two months",Duration of IBS: >120 months,14 (19) n (%)
same,"Number of months a subject was a responder during Months 1 to 3: Abnormal bowel habits, Zero months",Duration of IBS: >120 months,21 (29) n (%)
same,"Number of months a subject was a responder during Months 1 to 3: IBS symptoms, One month",Duration of IBS: >120 months,14 (19) n (%)
same,"Number of months a subject was a responder during Months 1 to 3: IBS symptoms, Three months",Duration of IBS: >120 months,23 (32) n (%)
same,"Number of months a subject was a responder during Months 1 to 3: IBS symptoms, Two months",Duration of IBS: >120 months,15 (21) n (%)
same,"Number of months a subject was a responder during Months 1 to 3: IBS symptoms, Zero months",Duration of IBS: >120 months,20 (28) n (%)
same,Number of subjects who were responders during the 26-week treatment period: Adequate relief of IBS symptoms,Duration of IBS: >120 months,40 (56) n (%)
same,Number of subjects who were responders during the 26-week treatment period: Adequate relief of abdominal pain/discomfort,Duration of IBS: >120 months,41 (57) n (%)
same,Number of subjects who were responders during the 26-week treatment period: Adequate relief of abnormal bowel habits,Duration of IBS: >120 months,42 (58) n (%)
same,"Number of months a subject was a responder during Months 1 to 3: Abdominal pain/discomfort, One month",Duration of IBS: ≦24 months,11 (11) n (%)
same,"Number of months a subject was a responder during Months 1 to 3: Abdominal pain/discomfort, Three months",Duration of IBS: ≦24 months,55 (57) n (%)
same,"Number of months a subject was a responder during Months 1 to 3: Abdominal pain/discomfort, Two months",Duration of IBS: ≦24 months,13 (14) n (%)
same,"Number of months a subject was a responder during Months 1 to 3: Abdominal pain/discomfort, Zero months",Duration of IBS: ≦24 months,17 (18) n (%)
same,"Number of months a subject was a responder during Months 1 to 3: Abnormal bowel habits, One month",Duration of IBS: ≦24 months,9 (9) n (%)
same,"Number of months a subject was a responder during Months 1 to 3: Abnormal bowel habits, Three months",Duration of IBS: ≦24 months,51 (53) n (%)
same,"Number of months a subject was a responder during Months 1 to 3: Abnormal bowel habits, Two months",Duration of IBS: ≦24 months,18 (19) n (%)
same,"Number of months a subject was a responder during Months 1 to 3: Abnormal bowel habits, Zero months",Duration of IBS: ≦24 months,18 (19) n (%)
same,"Number of months a subject was a responder during Months 1 to 3: IBS symptoms, One month",Duration of IBS: ≦24 months,16 (17) n (%)
same,"Number of months a subject was a responder during Months 1 to 3: IBS symptoms, Three months",Duration of IBS: ≦24 months,46 (48) n (%)
same,"Number of months a subject was a responder during Months 1 to 3: IBS symptoms, Two months",Duration of IBS: ≦24 months,16 (17) n (%)
same,"Number of months a subject was a responder during Months 1 to 3: IBS symptoms, Zero months",Duration of IBS: ≦24 months,18 (19) n (%)
same,Number of subjects who were responders during the 26-week treatment period: Adequate relief of IBS symptoms,Duration of IBS: ≦24 months,66 (69) n (%)
same,Number of subjects who were responders during the 26-week treatment period: Adequate relief of abdominal pain/discomfort,Duration of IBS: ≦24 months,70 (73) n (%)
same,Number of subjects who were responders during the 26-week treatment period: Adequate relief of abnormal bowel habits,Duration of IBS: ≦24 months,69 (72) n (%)
same,"Responder rate, adequate relief of IBS symptoms",Each month of Months 1 to 3,150 (38) n (%)
same,"Responder rate, adequate relief of abdominal pain/discomfort",Each month of Months 1 to 3,159 (40) n (%)
same,"Responder rate, adequate relief of abnormal bowel habits",Each month of Months 1 to 3,165 (42) n (%)
same,"Responder rate, adequate relief of IBS symptoms",Each month of Months 1 to 6,121 (31) n (%)
same,"Responder rate, adequate relief of abdominal pain/discomfort",Each month of Months 1 to 6,133 (34) n (%)
same,"Responder rate, adequate relief of abnormal bowel habits",Each month of Months 1 to 6,136 (34) n (%)
same,"Responder rate, adequate relief of IBS symptoms",Each month of Months 4 to 6,193 (49) n (%)
same,"Responder rate, adequate relief of abdominal pain/discomfort",Each month of Months 4 to 6,202 (51) n (%)
